Consider one compound from publication doi:10.1101/2022.04.11.487889v1 (biorxiv, 2022).

In general, IC50 refers to the concentration needed to halve the response being measured.

This test addresses T1, recombinant human PRDX6 (peroxiredoxin 6) (Homo sapiens, UniProt P30041).
T1 sequence (P30041 1-224): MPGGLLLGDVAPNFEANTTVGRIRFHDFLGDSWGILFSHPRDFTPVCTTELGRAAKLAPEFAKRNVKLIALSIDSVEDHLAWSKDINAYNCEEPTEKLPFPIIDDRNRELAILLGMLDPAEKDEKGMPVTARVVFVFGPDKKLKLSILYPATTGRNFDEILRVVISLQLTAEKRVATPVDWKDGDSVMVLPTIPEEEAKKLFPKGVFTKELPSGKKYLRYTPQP
Briefly: radioactive PLA2 assay, […]-DPPC liposomes, scintillation counting. The class given is biochemical.

Regarding `CCN(CC)CCN(Cc1ccc(-c2ccc(C(F)(F)F)cc2)cc1)C(=O)Cn1c(SCc2ccc(F)cc2)nc(=O)c2c1CCC2` [Darapladib], the IC50 was approximately 500 nM.
